Reference: paper PMC5538702, “Inhibitory effects and mechanism of dihydroberberine on hERG channels expressed in HEK293 cells” (PLoS ONE, 2017)

Biological target: T1, human ether-a-go-go-related gene (hERG) potassium channel (Homo sapiens, UniProt Q12809)
T1 construct: gene KCNH2; WT hERG stably expressed in HEK293 cells
Test: whole-cell patch clamp of hERG tail current, immediate perfusion; acute block lost in Y652A and F656V mutants
Type: cell-based

T1 sequence (Q12809 whole entry): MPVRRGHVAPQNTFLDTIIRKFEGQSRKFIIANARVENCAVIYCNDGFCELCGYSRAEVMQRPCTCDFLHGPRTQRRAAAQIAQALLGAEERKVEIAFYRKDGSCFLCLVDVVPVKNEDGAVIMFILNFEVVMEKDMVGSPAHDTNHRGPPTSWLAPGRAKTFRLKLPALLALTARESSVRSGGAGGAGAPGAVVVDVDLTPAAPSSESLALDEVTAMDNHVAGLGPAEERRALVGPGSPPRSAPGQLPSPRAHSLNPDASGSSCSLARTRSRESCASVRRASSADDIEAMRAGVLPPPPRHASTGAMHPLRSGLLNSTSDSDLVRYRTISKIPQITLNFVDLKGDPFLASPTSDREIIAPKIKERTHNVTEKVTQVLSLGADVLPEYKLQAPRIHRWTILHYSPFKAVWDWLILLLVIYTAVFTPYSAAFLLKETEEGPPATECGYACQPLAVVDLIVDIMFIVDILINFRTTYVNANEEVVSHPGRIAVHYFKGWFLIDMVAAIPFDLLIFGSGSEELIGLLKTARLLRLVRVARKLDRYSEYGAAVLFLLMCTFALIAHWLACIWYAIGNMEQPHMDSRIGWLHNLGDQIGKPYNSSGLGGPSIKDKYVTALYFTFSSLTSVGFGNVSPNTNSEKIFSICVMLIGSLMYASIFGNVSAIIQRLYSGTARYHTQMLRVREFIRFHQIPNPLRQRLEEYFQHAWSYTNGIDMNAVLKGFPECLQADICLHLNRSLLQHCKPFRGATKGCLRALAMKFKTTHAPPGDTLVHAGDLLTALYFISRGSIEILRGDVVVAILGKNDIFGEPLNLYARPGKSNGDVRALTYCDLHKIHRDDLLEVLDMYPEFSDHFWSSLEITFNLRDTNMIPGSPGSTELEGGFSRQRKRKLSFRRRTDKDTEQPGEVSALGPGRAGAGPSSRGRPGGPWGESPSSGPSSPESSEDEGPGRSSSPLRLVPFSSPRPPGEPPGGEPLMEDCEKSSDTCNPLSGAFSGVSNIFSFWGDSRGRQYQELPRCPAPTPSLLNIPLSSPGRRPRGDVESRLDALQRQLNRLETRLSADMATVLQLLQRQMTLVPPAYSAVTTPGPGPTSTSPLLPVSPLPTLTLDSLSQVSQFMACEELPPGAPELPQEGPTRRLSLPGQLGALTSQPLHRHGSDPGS

COc1ccc2c(c1OC)CN1CCc3cc4c(cc3C1=C2)OCO4 [DHB, dihydroberberine]
IC50: 10.5 µM
